{"source": "patent US20040077591A1", "about": "“Histone deacetylase inhibitors for the treatment of multiple sclerosis, amyotrophic lateral sclerosis and Alzheimer's Disease” (The Brigham and Women's Hospital, Inc., priority 2002, published 2004)", "key": {"ras transformed cells": {"tested_on": "ras transformed cells", "settings": "cited from earlier work"}, "EAE mice spinal cords": {"tested_on": "EAE mice spinal cords", "assay": "DNA microarray analysis of EAE mice spinal cords", "type": "in vivo", "excerpt": "(2) Modulation of genes involved in neuroprotection and immune regulation by TSA. a) Microarrays detect protective genes regulated by TSA in EAE mice spinal cords. The inventor pooled RNA from tissues of three animals in each group (TSA treated and vehicle-treated) for DNA microarray analysis. As shown (Table 3), intraperitoneal TSA led to the enhanced expression of mRNAs for the antioxidant glutathione peroxidase (Gpx1) and the neuroprotective insulin-like growth factor 2 (Igf2). […] Intraperitoneal TSA also led to decreased expression in EAE spinal cords of the chemokine receptor CCR6, immunoglobulin V(H)II, the vascular homeostasis-related phospholipase A2, and upregulation of the immunomodulatory factor interferon-α2 (Ifna2), the latter with known beneficial effects in MS patients.\nMicroarrays detect protective genes co-regulated by TSA in EAE mice spinal cords and spleens."}}}
{"compound": "CC(/C=C/C(=O)NO)=C\\[C@@H](C)C(=O)c1ccc(N(C)C)cc1", "note": "[TSA, Trichostatin A]", "values": [{"measurement": "hyperacetylation", "setting": "ras transformed cells", "value": "induce hyperacetylation"}, {"measurement": "morphology of ras transformed cells", "setting": "ras transformed cells", "value": "reversion of ras transformed cells to normal morphology"}, {"measurement": "Fold Δ CNS, Paired box gene 4 (Pax4)", "setting": "EAE mice spinal cords; Table 5, probe set AB010557, i.p. TSA, EAE mice spinal cord", "value": "−12.5", "unit": "fold"}, {"measurement": "Fold Δ CNS, Axin", "setting": "EAE mice spinal cords; Table 5, probe set AF009011, i.p. TSA, EAE mice spinal cord", "value": 4.9, "unit": "fold"}, {"measurement": "Fold Δ CNS, DNA methyltransferase (Dnmt1)", "setting": "EAE mice spinal cords; Table 5, probe set AF036008, i.p. TSA, EAE mice spinal cord", "value": "−8.8", "unit": "fold"}, {"measurement": "Fold Δ CNS, Metaxin homolog", "setting": "EAE mice spinal cords; Table 5, probe set AV108173, i.p. TSA, EAE mice spinal cord", "value": "−11.6", "unit": "fold"}, {"measurement": "Fold Δ CNS, Thromboxane A2 receptor (Tbxa2r)", "setting": "EAE mice spinal cords; Table 5, probe set D10849, i.p. TSA, EAE mice spinal cord", "value": "−5.2", "unit": "fold"}, {"measurement": "Fold Δ CNS, Growth differentiation factor (Gdf9)", "setting": "EAE mice spinal cords; Table 5, probe set L06444, i.p. TSA, EAE mice spinal cord", "value": 3.5, "unit": "fold"}, {"measurement": "Fold Δ CNS, Neurofilament heavy (Nefh)", "setting": "EAE mice spinal cords; Table 5, probe set M35131, i.p. TSA, EAE mice spinal cord", "value": 2.3, "unit": "fold"}, {"measurement": "Fold Δ CNS, Snail homolog 1 (Snail1)", "setting": "EAE mice spinal cords; Table 5, probe set M95604, i.p. TSA, EAE mice spinal cord", "value": 5.3, "unit": "fold"}, {"measurement": "Fold Δ CNS, Dishevelled 2 (Dvl2)", "setting": "EAE mice spinal cords; Table 5, probe set U24160, i.p. TSA, EAE mice spinal cord", "value": "−2.1", "unit": "fold"}, {"measurement": "Fold Δ CNS, Rearranged in lymphoma (Frat1)", "setting": "EAE mice spinal cords; Table 5, probe set U58974, i.p. TSA, EAE mice spinal cord", "value": 4.5, "unit": "fold"}, {"measurement": "Fold Δ CNS, Immunoglobulin H and L variable", "setting": "EAE mice spinal cords; Table 5, probe set U62386, i.p. TSA, EAE mice spinal cord", "value": "−2.1", "unit": "fold"}, {"measurement": "Fold Δ CNS, Cyclin D-interacting Dmp1 (Dmtf1)", "setting": "EAE mice spinal cords; Table 5, probe set U70017, i.p. TSA, EAE mice spinal cord", "value": 5.4, "unit": "fold"}, {"measurement": "Fold Δ CNS, Neuronal PAS domain 1 (Npas1)", "setting": "EAE mice spinal cords; Table 5, probe set U77967, i.p. TSA, EAE mice spinal cord", "value": 2, "unit": "fold"}, {"measurement": "Fold Δ CNS, Phospholipase C-beta-1b (Picb1)", "setting": "EAE mice spinal cords; Table 5, probe set U85714, i.p. TSA, EAE mice spinal cord", "value": 3.4, "unit": "fold"}, {"measurement": "Fold Δ CNS, Glutathione peroxidase (Gpx1)", "setting": "EAE mice spinal cords; Table 5, probe set X03920, i.p. TSA, EAE mice spinal cord", "value": 3, "unit": "fold"}, {"measurement": "Fold Δ CNS, Immunoglobulin kappa chain (1gk-V20)", "setting": "EAE mice spinal cords; Table 5, probe set X16678, i.p. TSA, EAE mice spinal cord", "value": "−3.3", "unit": "fold"}, {"measurement": "Fold Δ CNS, Paired box gene 2 (Pax2)", "setting": "EAE mice spinal cords; Table 5, probe set X55781, i.p. TSA, EAE mice spinal cord", "value": 7.1, "unit": "fold"}, {"measurement": "Fold Δ CNS, Max binding protein ROX (Mnt)", "setting": "EAE mice spinal cords; Table 5, probe set Y07609, i.p. TSA, EAE mice spinal cord", "value": "−2.2", "unit": "fold"}, {"measurement": "Fold Change, Ten-m3", "setting": "EAE mice spinal cords; probe set 92500, spinal cord, I.P. TSA vs vehicle-treated EAE mice", "value": "−5.4", "unit": "fold"}, {"measurement": "Fold Change, Thymopoietin (Tmpo)", "setting": "EAE mice spinal cords; probe set 92782, spinal cord, I.P. TSA vs vehicle-treated EAE mice", "value": "−6.4", "unit": "fold"}, {"measurement": "Fold Change, Histidine ammonia lyase (Ha)", "setting": "EAE mice spinal cords; probe set 92833, spinal cord, I.P. TSA vs vehicle-treated EAE mice", "value": 5.3, "unit": "fold"}, {"measurement": "Fold Change, SH3 domain protein 2B", "setting": "EAE mice spinal cords; probe set 93275, spinal cord, I.P. TSA vs vehicle-treated EAE mice", "value": 4.5, "unit": "fold"}, {"measurement": "Fold Change, Hox-3.1", "setting": "EAE mice spinal cords; probe set 93378, spinal cord, I.P. TSA vs vehicle-treated EAE mice", "value": "−5.3", "unit": "fold"}, {"measurement": "Fold Change, Cdk inhibitor p19", "setting": "EAE mice spinal cords; probe set 94521, spinal cord, I.P. TSA vs vehicle-treated EAE mice", "value": "−5.3", "unit": "fold"}, {"measurement": "Fold Change, IFN-alpha-2 (1fna2)", "setting": "EAE mice spinal cords; probe set 94717, spinal cord, I.P. TSA vs vehicle-treated EAE mice", "value": 5.6, "unit": "fold"}, {"measurement": "Fold Change, Histocompatibility 2 D region locus 1", "setting": "EAE mice spinal cords; probe set 97540, spinal cord, I.P. TSA vs vehicle-treated EAE mice", "value": 7.4, "unit": "fold"}, {"measurement": "Fold Change, Murinoglobulin (Mug)", "setting": "EAE mice spinal cords; probe set 97680, spinal cord, I.P. TSA vs vehicle-treated EAE mice", "value": "−7.2", "unit": "fold"}, {"measurement": "Fold Change, Transferrin-like p97", "setting": "EAE mice spinal cords; probe set 97970, spinal cord, I.P. TSA vs vehicle-treated EAE mice", "value": "−5.7", "unit": "fold"}, {"measurement": "Fold Change, Insulin-like growth factor 2 (1gf2)", "setting": "EAE mice spinal cords; probe set 98623, spinal cord, I.P. TSA vs vehicle-treated EAE mice", "value": 5.2, "unit": "fold"}, {"measurement": "Fold Change, Phospholipase A2 (Pla2)", "setting": "EAE mice spinal cords; probe set 99326, spinal cord, I.P. TSA vs vehicle-treated EAE mice", "value": "−6.4", "unit": "fold"}, {"measurement": "Fold Change, CCR6", "setting": "EAE mice spinal cords; probe set 99899, spinal cord, I.P. TSA vs vehicle-treated EAE mice", "value": "−7.3", "unit": "fold"}, {"measurement": "Fold Change, Ig V(H)II", "setting": "EAE mice spinal cords; probe set 100362, spinal cord, I.P. TSA vs vehicle-treated EAE mice", "value": "−4.9", "unit": "fold"}, {"measurement": "Fold Change, Glutathione peroxidase (Gpx1)", "setting": "EAE mice spinal cords; probe set 101676, spinal cord, I.P. TSA vs vehicle-treated EAE mice", "value": 6.9, "unit": "fold"}, {"measurement": "Fold Change, Mapkapk5", "setting": "EAE mice spinal cords; probe set 104364, spinal cord, I.P. TSA vs vehicle-treated EAE mice", "value": "−6.5", "unit": "fold"}]}
